Values of other authors as cited in patent publication US20240408053A1, “ENTERITIS-SUPPRESSING COMPOSITION” (KOBE GAKUIN EDUCATIONAL FOUNDATION, priority 2021, published 2024).

Conditions: blood metabolites after oral sesaminol in rats, for a short time (NPL 11); cited from earlier work

Row | Substance | antioxidant activity relative to that of sesaminol
1 | 5″-methylated sesamin-6-catechol | approximately 1.6 times
2 | sesaminol-6-catechol | approximately 1.6 times
